The target of this assay is Free fatty acid receptor 1 (Homo sapiens, UniProt O14842). Nature of the assay: 96-Well Adherent Reporter Cell Assay. The protocol: The reporter assay for the stable hGPR40-Gal4-Elk1/5xGal4-luc+-expressing CHO cells was first carried out in the serum-free medium in the presence of test ligand for 5h. The medium was then removed and replaced with 1:1 mixture of LucPlusTM (PerkinElmer Life Sciences) and Dulbecco phosphate buffered saline containing 1 mM CaCl2 and 1 mM MgCl2. Plates were incubated in the dark at room temperature for 10 min before luciferase activity was determined using a TopCountTM microplate scintillation counter (PerkinElmer Life Sciences) at a count time of 3 s/well.

Usually EC50 stands for the midpoint of the concentration-response curve. A high value points to lower potency in that assay.

Chain of Free fatty acid receptor 1 (O14842 whole entry, the tested form may be a part): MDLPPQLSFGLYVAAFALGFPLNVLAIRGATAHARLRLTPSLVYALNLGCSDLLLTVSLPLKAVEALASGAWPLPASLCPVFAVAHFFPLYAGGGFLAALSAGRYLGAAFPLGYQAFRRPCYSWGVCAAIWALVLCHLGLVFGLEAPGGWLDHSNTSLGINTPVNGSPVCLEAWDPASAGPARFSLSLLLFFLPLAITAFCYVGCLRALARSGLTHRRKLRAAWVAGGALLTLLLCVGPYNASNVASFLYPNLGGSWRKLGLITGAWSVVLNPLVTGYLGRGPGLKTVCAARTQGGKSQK

Take `CC(C(=O)O)c1ccc(NCc2ccc(-c3ccccc3)cc2)cc1` (configuration not stated) [2-(4-{[(4-phenylphenyl)methyl]amino}phenyl)propanoic acid]: where the note is “22 °C”, the EC50 was > 31.6 µM.

For the molecule `NC(=O)c1cccc(CNc2ccc(CCC(=O)O)cc2)c1` [3-(4-{[(3-carbamoylphenyl)methyl]amino}phenyl)propanoic acid], the EC50 (25 °C) is > 31.6 µM.

On to `CS(=O)(=O)Nc1cccc(CNc2ccc(CCC(=O)O)cc2)c1` [3-(4-{[(3-methanesulfonamidophenyl)methyl]amino}phenyl)propanoic acid], for which the concentration giving a half-maximal response (EC50) (25 °C) was > 31.6 µM.

For `N#Cc1ccc(CNc2ccc(CCC(=O)O)cc2)cc1` [3-(4-{[(4-cyanophenyl)methyl]amino}phenyl)propanoic acid], for the setting “25 °C”, the EC50 is > 31.6 µM.

Take `O=C(O)CCc1ccc(NCc2ccc(O)cc2)cc1` [3-(4-{[(4-hydroxyphenyl)methyl]amino}phenyl)propanoic acid]: the EC50 (25 °C) was > 31.6 µM.

For `O=C(O)CCc1ccc(NCc2ccc(Cl)s2)cc1` [3-(4-{[(5-chlorothiophen-2-yl)methyl]amino}phenyl)propanoic acid], under “22 °C”, the EC50 is 2 µM.

As to `O=C(O)CCc1ccc(NCc2ccc(C(F)(F)F)cc2)cc1` [3-[4-({[4-(trifluoromethyl)phenyl]methyl}amino)phenyl]propanoic acid], under “22 °C”, the midpoint of the response, the EC50, lay at 2 µM.

Turning to `O=C(O)CCc1ccc(NCc2ncc[nH]2)cc1` [3-{4-[(1H-imidazol-2-ylmethyl)amino]phenyl}propanoic acid], where the note is “25 °C”, the EC50 was > 31.6 µM.

As for `O=C(O)CCc1ccc(NCc2ccc3c(c2)OCO3)cc1` [3-{4-[(2H-1,3-benzodioxol-5-ylmethyl)amino]phenyl}propanoic acid], under “25 °C”, the EC50 is > 31.6 µM.

As for `O=C(O)CCc1ccc(NCc2cccnc2)cc1` [3-{4-[(pyridin-3-ylmethyl)amino]phenyl}propanoic acid], the EC50 (22 °C) is > 31.6 µM.

Regarding `CN(C)Cc1ccc(CNc2ccc(CCC(=O)O)cc2)cc1` [3-{4-[({4-[(dimethylamino)methyl]phenyl}methyl)amino]phenyl}propanoic acid], the EC50 (22 °C) was > 31.6 µM.

`O=C(O)CCc1ccc(NCc2ccc(C(=O)O)cc2)cc1` [4-({[4-(2-carboxyethyl)phenyl]amino}methyl)benzoic acid]: the EC50 (25 °C) is > 31.6 µM.

The record behind these values is BindingDB's records for doi:10.1016/j.bmcl.2006.12.084 (Gsk, 2007).
